Results: US20240335548A1, “MACROMOLECULES” (Starpharma Pty Ltd, priority 2011, published 2024)

Experiments:
MDA-MB-231 tumours = test: Xenograft MDA-MB-231 efficacy study; type: in vivo, female Balb/c nude mice
[1] = Maximum tolerated dose (MTD) study; type: in vivo, female Balb/c mice; details: intravenous once weekly for 3 weeks (day 1, 8 and 15)
Method: Groups of female Balb/c mice were administered an intravenous injection of dendrimer (0.1 ml/10 g body weight) or docetaxel (0.05 ml/10 g body weight) once weekly for 3 weeks (day 1, 8 and 15). Mice were weighed daily and watched for signs of toxicity. Animals were monitored for up to 10 days following the final drug dose. Any mice exceeding ethical endpoints (≥20% body weight loss, poor general health) were immediately sacrificed and observations were noted. […] More than twice the dose of docetaxel could be safely administered using drug dendrimer construct compared to docetaxel alone.

[2] = Pharmacokinetic analysis, plasma half-life after IV administration; details: rat, plasma, iv
Method: The plasma half-lives of tritium labelled docetaxel and the construct from Experiment 8 (c) (prepared using tritium labelled docetaxel) after IV administration into rats were determined (Kaminskas, L. M., Boyd, B. J., Karellas, P., Krippner, G. Y., Lessene, R., Kelly, B and Porter, C. J. H. “The Impact of Molecular Weight and PEG Chain Length on the Systemic Pharmacokinetics of PEGylated Poly-L-Lysine Dendrimers” Molecular Pharm. 2008, 5, 449-463).

ES2 (Ovarian) = test: Cell growth inhibition SRB assay; type: cell-based; details: ES2; 72 hours; equivalent drug loading; average of duplicate
Method: (§1) All solutions were prepared in saline (except docetaxel which was made in ethanol). All solutions were stored at −20° C. All values were based on the equivalent drug loading.

A549 (Lung) = test: Cell growth inhibition SRB assay; type: cell-based; details: Homo sapiens; A549; 72 hours; equivalent drug loading; average of duplicate
Method: as §1

MDA-MB-231 (Breast) = test: Cell growth inhibition SRB assay; type: cell-based; details: Homo sapiens; MDA-MB-231; 72 hours; equivalent drug loading; average of duplicate
Method: as §1

HCT116 (Colon) = test: Cell growth inhibition SRB assay; type: cell-based; details: Homo sapiens, HCT-116; HCT116; 72 hours; equivalent drug loading; average of duplicate
Method: as §1

H460 (Lung) = test: Cell growth inhibition SRB assay; type: cell-based; details: Homo sapiens, NCI-H460; H460; 72 hours; equivalent drug loading; average of duplicate
Method: as §1

PC-3 (Prostate) = test: Cell growth inhibition SRB assay; type: cell-based; details: PC-3; 72 hours; equivalent drug loading; average of duplicate
Method: as §1

HT29 (Colon) = test: Cell growth inhibition SRB assay; type: cell-based; details: Homo sapiens, HT-29; HT29; 72 hours; equivalent drug loading; average of duplicate
Method: as §1

MCAS (Ovarian) = test: Cell growth inhibition SRB assay; type: cell-based; details: MCAS; 72 hours; equivalent drug loading; average of duplicate
Method: as §1

DU145 (Prostate) = test: Cell growth inhibition SRB assay; type: cell-based; details: Homo sapiens, DU-145; DU145; 72 hours; equivalent drug loading; average of duplicate
Method: as §1

A2058 (Melanoma) = test: Cell growth inhibition SRB assay; type: cell-based; details: Homo sapiens; A2058; 72 hours; equivalent drug loading; average of duplicate
Method: as §1

[3] = free drug, footnote of Table 1; cited from earlier work
[4] = day 16, one day after final dose
Method: The 20 mice were randomised into 5 groups of four mice (mean tumour volume ˜90 mm^3). Animals were eye bled in the morning for baseline blood cell counts and then drug dosing commenced later that day (day 1). […] A second eye bleed was performed on day 11 (Table 7 A-C). Mice were killed one day following the final drug dose (day 16).

Compound: CC(=O)O[C@@]12CO[C@@H]1C[C@H](O)[C@@]1(C)C(=O)[C@H](O)C3=C(C)[C@@H](OC(=O)[C@H](O)[C@@H](NC(=O)OC(C)(C)C)c4ccccc4)C[C@@](O)([C@@H](OC(=O)c4ccccc4)[C@H]21)C3(C)C [Docetaxel, reference compound]
- Mean tumour Volumne mm^3 (sd) (MDA-MB-231 tumours; Day 1, i.v. day 1, 8, 15, docetaxel 15 mg/kg, Exp 3 (b) 20 mg/kg, Exp 8 (c) […] mg/kg): 111.94 (6.41), mm^3
- Mean tumour Volumne mm^3 (sd) (MDA-MB-231 tumours; Day 9, same doses): 135.57 (18.85), mm^3
- Mean tumour Volumne mm^3 (sd) (MDA-MB-231 tumours; Day 19, same doses): 49.92 (11.61), mm^3
- Mean tumour Volumne mm^3 (sd) (MDA-MB-231 tumours; Day 29, same doses): 18.81 (2.09), mm^3
- Mean tumour Volumne mm^3 (sd) (MDA-MB-231 tumours; Day 40, same doses): 10.75 (1.95), mm^3
- Mean tumour Volumne mm^3 (sd) (MDA-MB-231 tumours; Day 61, same doses): 95.94 (33.08), mm^3
- Mean tumour Volumne mm^3 (sd) (MDA-MB-231 tumours; Day 81, same doses): 478.67 (169.27), mm^3
- Mean tumour Volumne mm^3 (sd) (MDA-MB-231 tumours; Day 100, same doses): 974.83 (302.59), mm^3
- Tolerated dose [1]: 15 mg/kg docetaxel equivalents
- half-life [2]: < 1 h
- GI50 (ES2 (Ovarian)): 5 nM
- GI50 (A549 (Lung)): 3.5 nM
- GI50 (MDA-MB-231 (Breast)): 3.5 nM
- GI50 (HCT116 (Colon)): 0.7 nM
- GI50 (H460 (Lung)): 1.5 nM
- GI50 (PC-3 (Prostate)): 2.5 nM
- GI50 (HT29 (Colon)): 1.5 nM
- GI50 (MCAS (Ovarian)): 7 nM
- GI50 (DU145 (Prostate)): 2.5 nM
- GI50 (A2058 (Melanoma)): 2 nM
- solubility of the drug in water [3]: The solubility of docetaxel and in water is 5 μg/mL
- Mean Tumour Weights (g) (sd) [4]: 0.048 g
